Literature values, collected in paper PMC7948455, “Novel drug discovery platform for spinocerebellar ataxia, using fluorescence technology targeting β-III-spectrin” (The Journal of Biological Chemistry, 2020).

Test system: mammalian cells
Conditions: 10 μM ref 36, 37, 38; cited from earlier work

CCCCCCCC/C=C\CCCCCCCC(=O)NCc1ccc(O)c(OC)c1 [olvanil]
Reduction of cell viability: < 10%
